Laboratory results as given in US20250368616A1, “NITROGEN-CONTAINING HETEROCYCLIC DERIVATIVE INHIBITOR, AND PREPARATION METHOD THEREFOR AND USE THEREOF” (SHANGHAI HANSOH BIOMEDICAL CO., LTD., priority 2021, published 2025).

Tested on: Ba/F3 EGFR Del19/C797S cells
Test: Cell proliferation inhibition assay (Cell Titer-Glo), Ba/F3 EGFR Del19/C797S
Format: cell-based
Details: 72 hours, read-out: Ba/F3 EGFR Del19_C797S IC50
Description: Test Example 2: Cell Proliferation Inhibition Assay
Experimental objective: The objective of this test example is to test the inhibitory activity of compounds on the proliferation of different EGFR C797S drug-resistant mutant cell lines Ba/F3 EGFR Del19/T790M/C797S, Ba/F3 EGFR L858R/T790M/C797S, and Ba/F3 EGFR Del19/C797S.
• Ba/F3 EGFR Del19/T790M/C797S cells were purchased from KYinno Biotechnology Co., Ltd.; • Ba/F3 EGFR Del19/C797S cells were purchased from CoBioer Biosciences Co., Ltd.; • Ba/F3 EGFR L858R/T790M/C797S cells were purchased from CoBioer Biosciences Co., Ltd.; • Cell Titer-Glo was purchased from Promega, with a catalog number of G7573; • RPMI 1640 was purchased from Gibco, with a catalog number of 22400089; • FBS was purchased from Gibco, with a catalog number of 10091148; • cell culture plates were purchased from Corning, with a catalog number of 3610.
The inhibitory activity of the compound on the proliferation of different EGFR C797S drug-resistant mutant cell lines was detected using the Cell Titer-Glo method. The different cell lines were cultured in RPMI 1640 complete culture medium containing 10% FBS under conditions of 37° C. and 5% CO2, the cells were collected by centrifugation when growing to a certain density, and adjusted to appropriate cell density after counting, the cells were spread on a white 96-well plate at 90 μL/well, and cultured in a 37° C., 5% CO2 incubator overnight, prepared compound solutions of different concentrations were added at 10 μL/well, corresponding solvent controls were set, and all wells were cultured in a 37° C., 5% CO2 incubator for 72 hours, 50 μL of CellTiter-Glo solution was added to each well, shook and mixed evenly, and incubated in the dark for 10 minutes, and a BioTek Synergy H1 microplate reader was used for reading.
The luminescence signal value was used to calculate the inhibition rate. Graphpad Prism software was used to fit the concentration and inhibition rate to a nonlinear regression curve, so as to obtain the IC50 value, as shown in Tables 3 and 4 below for details.

SMILES | IC50 [µM]
CC(C)c1ccc(N2CC(CC#N)C2)c2cnc(Nc3ccnc(-c4cnn(S(=O)(=O)C5CC5)c4)n3)cc12 [Example 40, 2-(1-(3-((2-(1-(cyclopropylsulfonyl)-1H-pyrazol-4-yl)pyrimidin-4-yl)amino)-5-isopropylisoquinolin-8-yl)azetidin-3-yl)acetonitrile] | 0.07
CC(C)c1ccc(N2C[C@H](CS(C)(=O)=O)[C@H]2C)c2cnc(Nc3ccnc(-c4cn(CCN)nc4Cl)n3)cc12 [Example 71, N-(2-(1-(2-aminoethyl)-3-chloro-1H-pyrazol-4-yl)pyrimidin-4-yl)-5-isopropyl-8-((2R,3S)-2-methyl-3-((methanesulfonyl)methyl)azetidin-1-yl)isoquinolin-3-amine] | 0.096
CC(C)c1ccc(N2CC(C[S+](C)[O-])C2)c2cnc(Nc3ccnc(-c4cn(C)nc4Cl)n3)cc12 (stereo not shown) [Example 76, N-(2-(3-chloro-1-methyl-H-pyrazol-4-yl)pyrimidin-4-yl)-5-isopropyl-8-(3-((methylsulfinyl<sulfenyl>)methyl)azetidin-1-yl)isoquinolin-3-amine] | 0.063
COC(=O)NC1CN(c2ccc(C(C)C)c3cc(Nc4ccnc(-c5cn(C)nc5Cl)n4)ncc23)C1 [Example 72, methyl (1-(3-((2-(3-chloro-1-methyl-1H-pyrazol-4-yl)pyrimidin-4-yl)amino)-5-isopropylisoquinolin-8-yl)azetidin-3-yl)carbamate] | 0.077
Cc1nn(C)cc1-c1nccc(Nc2cc3c(C(C)C)ccc(N4CC(CS(C)(=O)=NC#N)C4)c3cn2)n1 (stereo not shown) [Example 83, N-(((1-(3-((2-(1,3-dimethyl-1H-pyrazol-4-yl)pyrimidin-4-yl)amino)-5-isopropylisoquinolin-8-yl)azetidin-3-yl)methyl)(methyl)(carbonyl)-l6-sulfanylidene)cyanamide] | 0.074
Cc1nn(C)cc1-c1nccc(Nc2cc3c(C(C)C)ccc(N4CC(N5CCCS5(=O)=O)C4)c3cn2)n1 [Example 69, 2-(1-(3-((2-(1,3-dimethyl-1H-pyrazol-4-yl)pyrimidin-4-yl)amino)-5-isopropylisoquinolin-8-yl)azetidin-3-yl)isothiazolidine 1,1-dioxide] | 0.051
CC(C)c1ccc(N2C[C@H](CS(C)(=O)=O)[C@H]2C)c2cnc(Nc3ccnc(-c4cnn(C5(CF)CC5)c4)n3)cc12 [Example 29, N-(2-(1-(1-(fluoromethyl)cyclopropyl)-1H-pyrazol-4-yl)pyrimidin-4-yl)-5-isopropyl-8-((2R,3S)-2-methyl-3-((methanesulfonyl)methyl)azetidin-1-yl)isoquinolin-3-amine] | 0.064

Compounds with a lower IC50, results first:

IC50 [µM] | SMILES
0.01 | CC(C)c1ccc(N2C[C@H](CS(C)(=O)=O)[C@H]2C)c2cnc(Nc3ccnc(-c4cn(C)nc4C(F)(F)F)n3)cc12 [Example 56, 5-isopropyl-8-((2R,3S)-2-methyl-3-((methanesulfonyl)methyl)azetidin-1-yl)-N-(2-(1-methyl-3-(trifluoromethyl)-1H-pyrazol-4-yl)pyrimidin-4-yl)isoquinolin-3-amine]
0.033 | CC(C)c1ccc(N2C[C@H](CS(C)(=O)=O)[C@H]2C)c2cnc(Nc3ccnc(-c4cn(CC(O)CF)nc4Cl)n3)cc12 (stereo partly drawn) [Example 82, 1-(3-chloro-4-(4-((5-isopropyl-8-((2R,3S)-2-methyl-3-((methanesulfonyl)methyl)azetidin-1-yl)isoquinolin-3-yl)amino)pyrimidin-2-yl)-1H-pyrazol-1-yl)-3-fluoropropan-2-ol]
0.041 | C=CCn1cc(-c2nccc(Nc3cc4c(C(C)C)ccc(N5C[C@H](CS(C)(=O)=O)[C@H]5C)c4cn3)n2)cn1 [Example 51, N-(2-(1-allyl-1H-pyrazol-4-yl)pyrimidin-4-yl)-5-isopropyl-8-((2R,3S)-2-methyl-3-((methanesulfonyl)methyl)azetidin-1-yl)isoquinolin-3-amine]
